Test results published in PubChem BioAssay AID1963442 (Molecular Pharmacology Branch, DTP, NCI, 2024).

System: MPNST complex spheroid with HUVEC/MSC, growth, % test/control
Test: Anticancer human tumor MPNST cell line growth inhibition [Asc];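 note: compounds left on spheroids for seven days before reading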
Settings: for IC50: curve of first compound; for viability, T/C: stronger effect = lower value
Outline: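 Stromal components (HUVEC and hMSC) are co-assembled with the cancer cells into multicellular spheroids. Drugs are then added singly or paired, at concentrations falling by half-log increments from a clinically achievable maximum, capped at 10 microM without known Cmax.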

[1] = second compound 0.03 µM, first compound 0.0316 µM
[2] = second compound 0.03 µM, first compound 0.1 µM
[3] = second compound 0.03 µM, first compound 0.316 µM
[4] = second compound 0.03 µM, first compound 1 µM
[5] = second compound 0.0949 µM, first compound 0.0316 µM
[6] = second compound 0.0949 µM, first compound 0.1 µM
[7] = second compound 0.0949 µM, first compound 0.316 µM
[8] = second compound 0.0949 µM, first compound 1 µM
[9] = second compound 0.3 µM, first compound 0.0316 µM
[10] = second compound 0.3 µM, first compound 0.1 µM
[11] = second compound 0.3 µM, first compound 0.316 µM
[12] = second compound 0.3 µM, first compound 1 µM
[13] = second compound 0.949 µM, first compound 0.0316 µM
[14] = second compound 0.949 µM, first compound 0.1 µM
[15] = second compound 0.949 µM, first compound 0.316 µM
[16] = second compound 0.949 µM, first compound 1 µM
[17] = second compound 3 µM, first compound 0.0316 µM
[18] = second compound 3 µM, first compound 0.1 µM
[19] = second compound 3 µM, first compound 0.316 µM
[20] = second compound 3 µM, first compound 1 µM

C#Cc1c(F)ccc2cc(O)cc(-c3ncc4c(N5CC6CCC(C5)N6)nc(OCC56CCCN5CC(F)C6)nc4c3F)c12 (stereo not given) + CCN1C(C(=O)NC23CCC(C(=O)O)(CC2)CC3)C(c2cccc(Cl)c2F)C2(C(=O)Nc3cc(Cl)ccc32)C12CCCCC2
IC50 (second compound 0.03 µM): > 10 µM | IC50 (second compound 0.0949 µM): > 10 µM | IC50 (second compound 0.3 µM): > 10 µM | IC50 (second compound 0.949 µM): > 10 µM | IC50 (second compound 3 µM): > 10 µM | viability, T/C [1]: 71.3% | viability, T/C [2]: 72.9% | viability, T/C [3]: 79.2% | viability, T/C [4]: 75.8% | viability, T/C (second compound 0.03 µM, first compound 3.16 µM): 78.4% | viability, T/C (second compound 0.03 µM, first compound 10 µM): 68.4% | viability, T/C [5]: 70.3% | viability, T/C [6]: 83.3% | viability, T/C [7]: 75.7% | viability, T/C [8]: 76.7% | viability, T/C (second compound 0.0949 µM, first compound 3.16 µM): 71.2% | viability, T/C (second compound 0.0949 µM, first compound 10 µM): 77% | viability, T/C [9]: 84.6% | viability, T/C [10]: 73.6% | viability, T/C [11]: 89.1% | viability, T/C [12]: 72.6% | viability, T/C (second compound 0.3 µM, first compound 3.16 µM): 60.8% | viability, T/C (second compound 0.3 µM, first compound 10 µM): 51% | viability, T/C [13]: 66.8% | viability, T/C [14]: 72% | viability, T/C [15]: 73% | viability, T/C [16]: 60.9% | viability, T/C (second compound 0.949 µM, first compound 3.16 µM): 61.1% | viability, T/C (second compound 0.949 µM, first compound 10 µM): 52.5% | viability, T/C [17]: 66.5% | viability, T/C [18]: 62.2% | viability, T/C [19]: 57.8% | viability, T/C [20]: 59.8% | viability, T/C (second compound 3 µM, first compound 3.16 µM): 60.1% | viability, T/C (second compound 3 µM, first compound 10 µM): 68.8%

CNC(C)C(=O)NC1CN(S(=O)(=O)c2cccc(S(=O)(=O)N3CCC4CCC(C(=O)NC(c5ccccc5)c5ccccc5)N4C(=O)C(NC(=O)C(C)NC)C3)c2)CCC2CCC(C(=O)NC(c3ccccc3)c3ccccc3)N2C1=O (stereo not given) + CCN1C(C(=O)NC23CCC(C(=O)O)(CC2)CC3)C(c2cccc(Cl)c2F)C2(C(=O)Nc3cc(Cl)ccc32)C12CCCCC2
IC50 (second compound 0.03 µM): > 1 µM | IC50 (second compound 0.0949 µM): > 1 µM | IC50 (second compound 0.3 µM): > 1 µM | IC50 (second compound 0.949 µM): > 1 µM | IC50 (second compound 3 µM): > 1 µM | viability, T/C (second compound 0.03 µM, first compound 0.00316 µM): 74.7% | viability, T/C (second compound 0.03 µM, first compound 0.01 µM): 78.1% | viability, T/C [1]: 94.7% | viability, T/C [2]: 114% | viability, T/C [3]: 106% | viability, T/C [4]: 93% | viability, T/C (second compound 0.0949 µM, first compound 0.00316 µM): 92.5% | viability, T/C (second compound 0.0949 µM, first compound 0.01 µM): 93.9% | viability, T/C [5]: 100% | viability, T/C [6]: 100% | viability, T/C [7]: 108% | viability, T/C [8]: 89.3% | viability, T/C (second compound 0.3 µM, first compound 0.00316 µM): 101% | viability, T/C (second compound 0.3 µM, first compound 0.01 µM): 99.7% | viability, T/C [9]: 99.4% | viability, T/C [10]: 99.8% | viability, T/C [11]: 96.6% | viability, T/C [12]: 122% | viability, T/C (second compound 0.949 µM, first compound 0.00316 µM): 98.1% | viability, T/C (second compound 0.949 µM, first compound 0.01 µM): 93.2% | viability, T/C [13]: 107% | viability, T/C [14]: 104% | viability, T/C [15]: 105% | viability, T/C [16]: 106% | viability, T/C (second compound 3 µM, first compound 0.00316 µM): 86.2% | viability, T/C (second compound 3 µM, first compound 0.01 µM): 86.9% | viability, T/C [17]: 100% | viability, T/C [18]: 104% | viability, T/C [19]: 93.8% | viability, T/C [20]: 118%

Cc1nc(N2CCC3(CC2)COC(C)C3N)c(CO)nc1Sc1ccnc(N)c1Cl (stereo not given) + CCN1C(C(=O)NC23CCC(C(=O)O)(CC2)CC3)C(c2cccc(Cl)c2F)C2(C(=O)Nc3cc(Cl)ccc32)C12CCCCC2
IC50 (second compound 0.03 µM): > 3 µM | IC50 (second compound 0.0949 µM): > 3 µM | IC50 (second compound 0.3 µM): > 3 µM | IC50 (second compound 0.949 µM): > 3 µM | IC50 (second compound 3 µM): > 3 µM | viability, T/C (second compound 0.03 µM, first compound 0.00949 µM): 92% | viability, T/C (second compound 0.03 µM, first compound 0.03 µM): 84.1% | viability, T/C (second compound 0.03 µM, first compound 0.0949 µM): 90.7% | viability, T/C (second compound 0.03 µM, first compound 0.3 µM): 87.9% | viability, T/C (second compound 0.03 µM, first compound 0.949 µM): 101% | viability, T/C (second compound 0.03 µM, first compound 3 µM): 75.5% | viability, T/C (second compound 0.0949 µM, first compound 0.00949 µM): 83.8% | viability, T/C (second compound 0.0949 µM, first compound 0.03 µM): 89% | viability, T/C (second compound 0.0949 µM, first compound 0.0949 µM): 92.2% | viability, T/C (second compound 0.0949 µM, first compound 0.3 µM): 82.2% | viability, T/C (second compound 0.0949 µM, first compound 0.949 µM): 75.5% | viability, T/C (second compound 0.0949 µM, first compound 3 µM): 58.3% | viability, T/C (second compound 0.3 µM, first compound 0.00949 µM): 101% | viability, T/C (second compound 0.3 µM, first compound 0.03 µM): 83.6% | viability, T/C (second compound 0.3 µM, first compound 0.0949 µM): 92.8% | viability, T/C (second compound 0.3 µM, first compound 0.3 µM): 77.2% | viability, T/C (second compound 0.3 µM, first compound 0.949 µM): 83.2% | viability, T/C (second compound 0.3 µM, first compound 3 µM): 63.4% | viability, T/C (second compound 0.949 µM, first compound 0.00949 µM): 77.9% | viability, T/C (second compound 0.949 µM, first compound 0.03 µM): 89.9% | viability, T/C (second compound 0.949 µM, first compound 0.0949 µM): 70% | viability, T/C (second compound 0.949 µM, first compound 0.3 µM): 76.7% | viability, T/C (second compound 0.949 µM, first compound 0.949 µM): 68% | viability, T/C (second compound 0.949 µM, first compound 3 µM): 54.4% | viability, T/C (second compound 3 µM, first compound 0.00949 µM): 66.3% | viability, T/C (second compound 3 µM, first compound 0.03 µM): 75.9% | viability, T/C (second compound 3 µM, first compound 0.0949 µM): 72.4% | viability, T/C (second compound 3 µM, first compound 0.3 µM): 67.8% | viability, T/C (second compound 3 µM, first compound 0.949 µM): 52.3% | viability, T/C (second compound 3 µM, first compound 3 µM): 55.8%
